From PubChem BioAssay (NCI)
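48-hour exposure; five concentrations; linearly interpolated endpoints. GI50 marks 50% less growth. TGI marks complete inhibition of growth.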

Assays:
Assay in all cases: growth of human tumour cells (NCI), 48 h
SF-295 CNS = system: SF-295 CNS
CAKI-1 renal = system: CAKI-1 renal
TK-10 renal = system: TK-10 renal
NCI-H226 lung = system: NCI-H226 lung
KM12 colon = system: KM12 colon
SNB-75 CNS = system: SNB-75 CNS
SF-268 CNS = system: SF-268 CNS
HL-60(TB) leukemia = system: HL-60(TB) leukemia
SK-MEL-5 melanoma = system: SK-MEL-5 melanoma
SK-MEL-2 melanoma = system: SK-MEL-2 melanoma
COLO 205 colon = system: COLO 205 colon
EKVX NSCLC = system: EKVX NSCLC
DU-145 prostate = system: DU-145 prostate
RPMI-8226 leukemia = system: RPMI-8226 leukemia
OVCAR-4 ovarian = system: OVCAR-4 ovarian
M14 melanoma = system: M14 melanoma
MDA-MB-468 breast = system: MDA-MB-468 breast
A498 renal = system: A498 renal
IGROV1 ovarian = system: IGROV1 ovarian
PC-3 prostate = system: PC-3 prostate
SF-539 CNS = system: SF-539 CNS
RXF 393 renal = system: RXF 393 renal
HCC-2998 colon = system: HCC-2998 colon
A549 NSCLC = system: A549 NSCLC
NCI/ADR-RES ovarian = system: NCI/ADR-RES ovarian
MCF7 breast = system: MCF7 breast
K-562 leukemia = system: K-562 leukemia
T-47D breast = system: T-47D breast
SK-OV-3 ovarian = system: SK-OV-3 ovarian
HOP-62 NSCLC = system: HOP-62 NSCLC
SK-MEL-28 melanoma = system: SK-MEL-28 melanoma
OVCAR-5 ovarian = system: OVCAR-5 ovarian
NCI-H460 lung = system: NCI-H460 lung
LOX IMVI melanoma = system: LOX IMVI melanoma
OVCAR-3 ovarian = system: OVCAR-3 ovarian
UACC-62 melanoma = system: UACC-62 melanoma
HOP-92 NSCLC = system: HOP-92 NSCLC
SNB-19 CNS = system: SNB-19 CNS
OVCAR-8 ovarian = system: OVCAR-8 ovarian
HT29 colon = system: HT29 colon
UO-31 renal = system: UO-31 renal
MALME-3M melanoma = system: MALME-3M melanoma
HS 578T breast = system: HS 578T breast
MDA-MB-435 = system: MDA-MB-435
SN12C renal = system: SN12C renal
ACHN renal = system: ACHN renal
HCT-116 colon = system: HCT-116 colon
786-0 renal = system: 786-0 renal
UACC-257 melanoma = system: UACC-257 melanoma
U251 CNS = system: U251 CNS
CCRF-CEM leukemia = system: CCRF-CEM leukemia
SW-620 colon = system: SW-620 colon
MDA-MB-231 breast = system: MDA-MB-231 breast
NCI-H522 lung = system: NCI-H522 lung
HCT-15 colon = system: HCT-15 colon
MOLT-4 leukemia = system: MOLT-4 leukemia
NCI-H23 lung = system: NCI-H23 lung
BT-549 breast = system: BT-549 breast

SMILES: Cn1cc(-c2cc(N)n3nc(-c4cn(C)c5ncccc45)cc3n2)c2cccnc21
- GI50 (SF-295 CNS): 17.5 µM
- TGI (SF-295 CNS): 38.8 µM
- GI50 (CAKI-1 renal): 16.9 µM
- TGI (CAKI-1 renal): 35.6 µM
- GI50 (TK-10 renal): 14.3 µM
- TGI (TK-10 renal): 27.9 µM
- GI50 (NCI-H226 lung): 17.8 µM
- TGI (NCI-H226 lung): 42.9 µM
- GI50 (KM12 colon): 16.6 µM
- TGI (KM12 colon): 32.3 µM
- GI50 (SNB-75 CNS): 11.1 µM
- TGI (SNB-75 CNS): 30.6 µM
- GI50 (SF-268 CNS): > 100 µM
- TGI (SF-268 CNS): > 100 µM
- GI50 (HL-60(TB) leukemia): 14.8 µM
- TGI (HL-60(TB) leukemia): 37 µM
- GI50 (SK-MEL-5 melanoma): 14.4 µM
- TGI (SK-MEL-5 melanoma): 28.2 µM
- GI50 (SK-MEL-2 melanoma): > 100 µM
- TGI (SK-MEL-2 melanoma): > 100 µM
- GI50 (COLO 205 colon): 10.3 µM
- TGI (COLO 205 colon): 23.9 µM
- GI50 (EKVX NSCLC): 15.2 µM
- TGI (EKVX NSCLC): 30.2 µM
- GI50 (DU-145 prostate): 14.6 µM
- TGI (DU-145 prostate): 28.5 µM
- GI50 (RPMI-8226 leukemia): 12.9 µM
- TGI (RPMI-8226 leukemia): 38.4 µM
- GI50 (OVCAR-4 ovarian): 17.2 µM
- TGI (OVCAR-4 ovarian): 36.2 µM
- GI50 (M14 melanoma): 16 µM
- TGI (M14 melanoma): 30.9 µM
- GI50 (MDA-MB-468 breast): 13.7 µM
- TGI (MDA-MB-468 breast): 26.7 µM
- GI50 (A498 renal): > 100 µM
- TGI (A498 renal): > 100 µM
- GI50 (IGROV1 ovarian): 17.8 µM
- TGI (IGROV1 ovarian): 37.6 µM
- GI50 (PC-3 prostate): 15.2 µM
- TGI (PC-3 prostate): 34.9 µM
- GI50 (SF-539 CNS): 16.4 µM
- TGI (SF-539 CNS): 32.1 µM
- GI50 (RXF 393 renal): 5.11 µM
- TGI (RXF 393 renal): 21.9 µM
- GI50 (HCC-2998 colon): 15.1 µM
- TGI (HCC-2998 colon): 28.3 µM
- GI50 (A549 NSCLC): 15.7 µM
- TGI (A549 NSCLC): 42 µM
- GI50 (NCI/ADR-RES ovarian): 30.9 µM
- TGI (NCI/ADR-RES ovarian): > 100 µM
- GI50 (MCF7 breast): 18.7 µM
- TGI (MCF7 breast): 41.6 µM
- GI50 (K-562 leukemia): 6.6 µM
- TGI (K-562 leukemia): 27 µM
- GI50 (T-47D breast): 42.7 µM
- TGI (T-47D breast): > 100 µM
- GI50 (SK-OV-3 ovarian): > 100 µM
- TGI (SK-OV-3 ovarian): > 100 µM
- GI50 (HOP-62 NSCLC): 18 µM
- TGI (HOP-62 NSCLC): 36.4 µM
- GI50 (SK-MEL-28 melanoma): 16.4 µM
- TGI (SK-MEL-28 melanoma): 31.6 µM
- GI50 (OVCAR-5 ovarian): 15.1 µM
- TGI (OVCAR-5 ovarian): 28.4 µM
- GI50 (NCI-H460 lung): 15.9 µM
- TGI (NCI-H460 lung): 32.6 µM
- GI50 (LOX IMVI melanoma): 18.2 µM
- TGI (LOX IMVI melanoma): 39.7 µM
- GI50 (OVCAR-3 ovarian): 15.6 µM
- TGI (OVCAR-3 ovarian): 30.9 µM
- GI50 (UACC-62 melanoma): 29 µM
- TGI (UACC-62 melanoma): > 100 µM
- GI50 (HOP-92 NSCLC): 11.1 µM
- TGI (HOP-92 NSCLC): 29.1 µM
- GI50 (SNB-19 CNS): 18.6 µM
- TGI (SNB-19 CNS): 38.4 µM
- GI50 (OVCAR-8 ovarian): 18.7 µM
- TGI (OVCAR-8 ovarian): 46 µM
- GI50 (HT29 colon): 14.9 µM
- TGI (HT29 colon): 31.5 µM
- GI50 (UO-31 renal): 15.2 µM
- TGI (UO-31 renal): 32.1 µM
- GI50 (MALME-3M melanoma): 17.3 µM
- TGI (MALME-3M melanoma): 36.4 µM
- GI50 (HS 578T breast): 18.7 µM
- TGI (HS 578T breast): 73.4 µM
- GI50 (MDA-MB-435): 29.4 µM
- TGI (MDA-MB-435): > 100 µM
- GI50 (SN12C renal): 15.2 µM
- TGI (SN12C renal): 30.4 µM
- GI50 (ACHN renal): 17.3 µM
- TGI (ACHN renal): 33 µM
- GI50 (HCT-116 colon): 16.8 µM
- TGI (HCT-116 colon): 38.2 µM
- GI50 (786-0 renal): 16.7 µM
- TGI (786-0 renal): 32.2 µM
- GI50 (UACC-257 melanoma): 29.2 µM
- TGI (UACC-257 melanoma): > 100 µM
- GI50 (U251 CNS): 19.8 µM
- TGI (U251 CNS): 46.4 µM
- GI50 (CCRF-CEM leukemia): 5.88 µM
- TGI (CCRF-CEM leukemia): 94.5 µM
- GI50 (SW-620 colon): 13.3 µM
- TGI (SW-620 colon): 29.7 µM
- GI50 (MDA-MB-231 breast): 13.7 µM
- TGI (MDA-MB-231 breast): 26.5 µM
- GI50 (NCI-H522 lung): 32.1 µM
- TGI (NCI-H522 lung): > 100 µM
- GI50 (HCT-15 colon): 16.4 µM
- TGI (HCT-15 colon): 31.2 µM
- GI50 (MOLT-4 leukemia): 17.7 µM
- TGI (MOLT-4 leukemia): 51.6 µM
- GI50 (NCI-H23 lung): 17.4 µM
- TGI (NCI-H23 lung): 32 µM
- GI50 (BT-549 breast): 17.4 µM
- TGI (BT-549 breast): 39.1 µM
